Literature values as cited in US20040115233A1, “Composition for improving skin environment and clothes thereof” (priority 2001, published 2004).

Tests used:
[1] = tested on: microorganisms; details: among components of tea tree oil
[2] = tested on: patients with atopic diseases

For Cc1ccc(C(C)C)cc1 [paracimene], the antibacterial action [1] is listed as “some antibacterial actions”.

For CC1=CC=C(C(C)C)CC1 [α-terpinene], the antibacterial action [1] is listed as “some antibacterial actions”.

In the case of CC1=CCC(C(C)(C)O)CC1 (stereo not drawn) [α-terpineol], the antibacterial action [1] is given as “some antibacterial actions”.

For CCCCCC=CCC=CCC=CCCCCC(=O)O [γ-linolenic acid, 6,9,12-octadecatrienic acid], the alleviating itching ([2]; patients with mild to medium atopic diseases (127 children and 240 adults)) is given as “effective for alleviating itching” and the “serious cases in which the disease was improved” value ([2]; serious cases) is given as 116 of 179.

In the case of CC1=CCC(C(C)C)=CC1 [γ-terpinene], the antibacterial action [1] is given as “some antibacterial actions”.
